Assay results as given in patent US4564614A, “Antiinflammatory methods” (priority 1985, dated 1986).

Tests used:
[1] = system: piroxicam-induced gastric lesions; assay: animal or person; format: in vivo, rat (CD strain, Sprague-Dawley); conditions: for Lesions/Rat (mean +/- SE): with 120 mg/kg ethanolamine salt of piroxicam; for Significance p < 0.05: Student's two-tailed t test vs piroxicam-only control; for reduction of piroxicam-induced gastric lesions: healthy fasted rat
Protocol: Adult male "specific pathogen free" rats weighing 140-160 grams of the CD strain (Sprague-Dawley) were obtained from Charles River Breeding Laboratories (Kingston, N.Y.) The animals were acclimated for approximately one week and tested when they reached a body weight of 200-225 grams. The rats were fasted for 16 hours and randomized into groups consisting of 8 to 20 animals which were normalized with regard to their average body weight.
Gastric ulcers were induced in the animals by orally dosing them with a single 120 mg/kg dose of piroxicam (ethanolamine salt) in 2 ml. of aqueous 0.1% methylcellulose (pH=6.8). Those animals receiving a second medicinal agent separately received the second drug in an additional 2 ml. of the same medium at about the same time. Six and one-half hours later, the animals were sacrificed by cervical dislocation and autopsied. The stomachs were surgically removed, dissected along the greater curvature and rinsed with cold water. The stomachs were individually scored for both linear and punctuate lesions. The total number of lesions was used for scoring purposes. The data obtained from each group of rats was analyzed after calculation of the mean number ± the standard error of total gastric lesions. The values obtained were also compared to the controls which received only piroxicam by the two-tailed Student's T-Test for non-paired data.

rheumatoid arthritis = conditions: 50-150 mg/day for 3 months, rheumatoid arthritis patients, most taking aspirin; cited from earlier work
[2] = 50-150 mg/day for 3 months, rheumatoid arthritis patients; cited from earlier work
gastric ulcers = conditions: subcutaneous injection; cited from earlier work
ulcers = conditions: 1.1 mg/kg, injection; cited from earlier work

Cc1ncc(CO)c(CO)c1O.Cl [Pyridoxine Hydrochloride, pyridoxine hydrochloride]
Lesions/Rat (mean +/- SE) ([1]; 3.3 mg/kg oral, 10 rats): 7.0 (1.1) | Lesions/Rat (mean +/- SE) ([1]; 10 mg/kg oral, 30 rats): 4.2 (1.2) | Lesions/Rat (mean +/- SE) ([1]; 33 mg/kg oral, 50 rats): 3.9 (1.1) | Significance p < 0.05 ([1]; 33 mg/kg oral): + (p < 0.05) | Lesions/Rat (mean +/- SE) ([1]; 100 mg/kg oral, 20 rats): 2.7 (1.1) | Significance p < 0.05 ([1]; 100 mg/kg oral): + (p < 0.05) | ED50 ([1]; Rattus norvegicus, 6.5 h, oral, linear regression analysis, 120 mg/kg ethanolamine salt of piroxicam, read-out: ED50 (dose required to inhibit 50% of control gastric lesion)): 33 mg/kg | clinical improvements in the disease (rheumatoid arthritis): no clinical improvements | increase in plasma levels of pyridoxal phosphate [2]: 2-5 fold

Cc1ncc(CO)c(CO)c1O [Pyridoxine, pyridoxine]
healing of gastric ulcers (gastric ulcers): not promote the healing | pain of gastric ulcers (gastric ulcers): alleviate the pain | frequency of ulcers (ulcers): reduce the frequency of ulcers

CC(=O)Nc1ccc(O)cc1 [acetaminophen]
reduction of piroxicam-induced gastric lesions [1]: significantly reduce

CN1C(=O)CN=C(c2ccccc2)c2cc(Cl)ccc21 [diazepam]
reduction of piroxicam-induced gastric lesions [1]: significantly reduce

CN(C)CCC=C1c2ccccc2COc2ccccc21 [doxepin]
reduction of piroxicam-induced gastric lesions [1]: significantly reduce

c1ccc(CCNc2nc(-c3ccccc3)cs2)cc1 [fanetizole]
reduction of piroxicam-induced gastric lesions [1]: significantly reduce

CC(C)(C)NCC(O)c1ccc(O)c(CO)n1 (centres unmarked) [pirbuterol]
reduction of piroxicam-induced gastric lesions [1]: significantly reduce
